In PMC4629473 (European journal of medicinal chemistry, 2015):
Like-named read-outs stand apart in the source and are kept apart here.

What was measured:
[1] = target: HIV-1 IN recombinant protein (Human immunodeficiency virus type 1 group M subtype B, UniProt P12497); assay: HIV-1 integrase 3′-processing gel-based assay; assay type: biochemical
Vero cells = assay: Cytotoxicity in Vero cells; assay type: cell-based
HIV-1 = assay: Antiviral activity against HIV-1 in activated primary human PBM cells; assay type: cell-based; conditions: read-out: EC50 (μM), concentration required to induce 50% of inhibition
CEM cells = assay: Cytotoxicity in CEM cells; assay type: cell-based
PBM cells = assay: Cytotoxicity in normal PBM cells; assay type: cell-based, human

| Molecule | IC50 [1] | CC50 (Vero cells) | EC50 (HIV-1) | CC50 (CEM cells) | CC50 (PBM cells) | CC50 (Vero cells; read-out: CC50 (μM) VERO, VERO cells, concentration reducing cell growth by 50%) | CC50 (CEM cells; read-out: CC50 (μM) CEM, CEM cells, concentration reducing cell growth by 50%) | CC50 (PBM cells; read-out: CC50 (μM) PBM, PBM cells, concentration reducing cell growth by 50%) |
| --- | --- | --- | --- | --- | --- | --- | --- | --- |
| CCOC(=O)c1c(-c2ccccc2)nc(=O)n(Cc2ccc(C(=O)/C=C(\O)C(=O)O)cc2)c1C [4a, 4-[4-[(5-ethoxycarbonyl-6-methyl-2-oxo-4-phenyl-pyrimidin-1-yl)methyl]phenyl]-2-hydroxy-4-oxo-but-2-enoic acid] | > 111 µM |  |  |  |  |  |  |  |
| Ethyl (Z)-1-(4-(3-hydroxy-4-isopropoxy-4-oxobut-2-enoyl)benzyl)-4-(4-methoxyphenyl)-2-oxo-6-phenyl-1,2-dihydropyrimidine-5-carboxylate [4′l] |  | > 100 µM | 80.6 µM | 25.3 µM | > 100 µM |  |  |  |
| Ethyl (Z)-6-ethyl-1-(4-(3-(3-hydroxy-4-isopropoxy-4-oxobut-2-enoyl)benzyl)benzyl)-2-oxo-4-phenyl-1,2-dihydropyrimidine-5-carboxylate [19′] |  |  | 36.8 µM |  |  | > 100 µM | 8.9 µM | 47.6 µM |
